Measured values as given in patent US11096985B2, “Antimicrobial peptides, their variants and uses” (priority 2015, dated 2021).
Where a SMILES comes first, the peptide text is derived from it. [ ]: non-standard residue; d: D form.

Key:
[1] = tested on: Staphylococcus aureus (ATCC 25923); type: cell-based
Method: (§1) Minimum inhibition concentrations (MICs) were determined against Escherichia coli (ATCC 25922), Staphylococcus aureus (ATCC 25923), Klebsiella pneumoniae (ATCC 10031) and Pseudomonas aeruginosa (ATCC 27853). Also clinical strains of E. coli, K. pneumoniae, E. cloacae, P. aeruginosa, Serratia marcescens, Proteus mirabilis, S. pneumoniae, Acinetobacter baumannii, A. johnsonii and S. aureus were used for MICs assays. Additionally, clinical strains of yeast including Candida albicans, C. glabrata, C. parapsilosis and C. quillermondiae were used. The susceptibility of these microorganisms to Chain peptides were determined using micro broth dilution assay. Colonies of the respective microorganism from Muller Hinton (MH) agar plates incubated overnight were suspended in MH broth media and final concentration of microorganism was adjusted to 5.0×10^5 cfu/ml. An aliquot of 10 μl of each Chain peptide, or gentamicin, tetracycline as reference antibiotics were added in differing concentrations along with 90 μl of bacterial suspension to 96 well polypropylene plates and incubated at 37° C. for 20 to 24 hours. Concentrations of Chain peptides and reference antibiotics ranged from 0.125 to 128 μg/ml and the MICs were recorded as the lowest concentration with no visual growth of bacteria. Similarly, antifungal MICs were tested in Potato dextrose broth.

[2] = tested on: Escherichia coli (ATCC 25922); type: cell-based
Method: as §1

[3] = tested on: Klebsiella pneumoniae (ATCC 10031); type: cell-based
Method: as §1

[4] = tested on: Pseudomonas aeruginosa (ATCC 27853); type: cell-based
Method: as §1

[5] = tested on: Staphylococcus aureus (ATCC 25923); type: cell-based; details: Peptides 50 μg; Gentamycin 5 μg; diameter including the wells
Method: (§2) The radial diffusion assay (RDA) was carried out as described by Andersen et al. (2010). Briefly, 30 ml of 1/10 Muller-Hinton broth (MHB) supplemented with 1% agarose and 5.0×10^5 CFU/ml S. aureus or E. coli or K. pneumoniae, P. aeruginosa cells was poured into a single-well omnitray (Nunc) and overlaid with a TSP 96-well plate. […] The peptides were also tested against Fusarium oxysporum and Verticillium dahliae, for which 1/3 potato dextrose agarose was used. To test the synergistic effect of peptides, each peptide was mixed in equimolar concentrations. Mix1 (met1-12), Mix2 (met3, 4 and 5), Mix3 (met 8, 9 and 10), Mix 4 (met11, 12) and Mix5 (8, 9, 10, 11, 12) were prepared and tested against E. coli and S. aureus. Gentamicin and vancomycin were included as positive controls for bacteria and amphotericin B was used as the control for fungi.

[6] = tested on: Escherichia coli (ATCC 25922); type: cell-based; details: Peptides 50 μg; Gentamycin 5 μg; diameter including the wells
Method: as §2

[7] = tested on: Klebsiella pneumoniae (ATCC 10031); type: cell-based; details: Peptides 50 μg; Gentamycin 5 μg; diameter including the wells
Method: as §2

[8] = tested on: Pseudomonas aeruginosa (ATCC 27853); assay: Radial diffusion assay (RDA) against P. aeruginosa; type: cell-based; details: Peptides 50 μg; Gentamycin 5 μg; diameter including the wells
Method: as §2

[9] = tested on: Escherichia coli, Staphylococcus aureus, Klebsiella pneumoniae and Pseudomonas aeruginosa; assay: Radial diffusion assay, summary over the bacteria tested; type: cell-based; details: Gentamicin 5 μg
Method: The radial diffusion assay (RDA) was carried out as described by Andersen et al. (2010). Briefly, 30 ml of 1/10 Muller-Hinton broth (MHB) supplemented with 1% agarose and 5.0×10^5 CFU/ml S. aureus or E. coli or K. pneumoniae, P. aeruginosa cells was poured into a single-well omnitray (Nunc) and overlaid with a TSP 96-well plate. One hundred μg of each synthesized peptide was tested. The peptides were also tested against Fusarium oxysporum and Verticillium dahliae, for which 1/3 potato dextrose agarose was used. To test the synergistic effect of peptides, each peptide was mixed in equimolar concentrations. Mix1 (met1-12), Mix2 (met3, 4 and 5), Mix3 (met 8, 9 and 10), Mix 4 (met11, 12) and Mix5 (8, 9, 10, 11, 12) were prepared and tested against E. coli and S. aureus. Gentamicin and vancomycin were included as positive controls for bacteria and amphotericin B was used as the control for fungi.

S. aureus COL (MRSA) = assay: Synergistic activity with Ertapenem (4 μg/ml) against MRSA, MIC; type: cell-based, Staphylococcus aureus; details: Ertapenem 4 μg/ml; D-form
Method in brief: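 Broth microdilution in MH broth with 5.0×10^5 cfu/ml inoculum, 37° C for 20–24 h. MIC was the lowest concentration without visible growth (range 0.125–128 μg/ml). L- and D-form peptides were tested on S. aureus RN4220 and COL (MRSA), alone and with Ertapenem at 4 μg/ml.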

Compound | Minimum inhibitory concentration, Staphylococcus aureus (ATCC 25923) [1] | Minimum inhibitory concentration, Escherichia coli (ATCC 25922) [2] | Minimum inhibitory concentration, Klebsiella pneumoniae (ATCC 10031) [3] | Minimum inhibitory concentration, Pseudomonas aeruginosa (ATCC 27853) [4] | Inhibition zone, Staphylococcus aureus [5] | Inhibition zone, Escherichia coli [6] | Inhibition zone, Klebsiella pneumoniae [7] | Inhibition zone, Pseudomonas aeruginosa [8] | zone of inhibition over the four bacteria [9] | MIC against MRSA strains along with Ertapenem, D-peptide (S. aureus COL (MRSA))
Gentamicin [reference compound] | 0.25 µg/mL | 1 µg/mL | 0.25 µg/mL | 0.25 µg/mL | 24 mm | 22 mm | 22 mm | 24 mm | 22-24 mm | 
CC(C)C[C@@H](NC(=O)[C@@H](CCCCN)NC(=O)[C@@H](CCCCN)NC(=O)[C@@H](Cc1ccccc1)NC(=O)[C@@H](CC(C)C)NC(=O)[C@@H](Cc1c[nH]c2ccccc12)NC(=O)[C@@H](CCCNC(=N)N)NC(=O)[C@@H](Cc1c[nH]c2ccccc12)NC(=O)[C@@H](CCCCN)NC(=O)[C@@H](CCCNC(=N)N)NC(=O)[C@H](N)CCCCN)C(=O)O [Chain310D] (H-[dK][dR][dK][dW][dR][dW][dL][dF][dK][dK][dL]-OH) |  |  |  |  |  |  |  |  |  | 0.03 µg/mL
